Assay results as given in US6043248A, “Alpha-substituted pyrimidine-thioalkyl and alkylether compounds as inhibitors of viral reverse transcriptase” (priority 1997, dated 2000).
Structures can show the parent of a compound that is named as a salt.

Each compound was assayed against T1, P236L viral reverse transcriptase (Human immunodeficiency virus type 1 group M subtype B, UniProt P04585, P823L) (assay: inhibition of viral reverse transcriptase (P236L), cell free assay). Conditions: 30 minutes at 37° C., read-out: IC50 (Table I, P236L).
T1 construct: P236L viral reverse transcriptase is obtained by PNAS 90: 4713-4717 (1993); made in house
Assay type: biochemical
From the text: (§1) The utility of the pyrimidine-thioalkyl and alkylether anti-AIDS compounds of Formula IA of this invention can be determined by their ability to inhibit viral reverse transcriptase, an enzyme essential for human immunodeficiency virus replication. This enzyme has characteristics which differentiate it from other known cellular polymerases and it is a unique enzyme which is not found in uninfected cells. Viral reverse transcriptase (Wild Type) is found in extracts from bacterial clones prepared according to the procedure described in AIDS Virus Reverse Transcriptase defined by high level expression in Escherichia coli, EMBO J. 6:3133-3137 (1987). P236L viral reverse transcriptase is obtained by PNAS 90: 4713-4717 (1993). Inhibition of this enzyme is determined in a cell free assay which measures the level of radioactive precursors incorporated into DNA. Extracts prepared according to the procedure of Science, 1125-1129 (1981) are incubated in a mixture of inhibitor, 20 mM dithiothreitol, 60 mM sodium chloride, 0.05% NP-40, 10 mM magnesium chloride, 50 mM Tris pH 8.3, 10 μM [^35 S]-labeled deoxynuleoside-5'-triphosphate, 10 μg/ml RNA template (poly rC or poly rG) and 5 μg/ml DNA primer (oligo dG or oligo dT) for 30 minutes at 37° C. Incorporation of radio-labeled percursor is determined by spotting aliquots of the reaction mixture on DE81 paper, washing the papers to remove unincorporated percursor, drying and determining counts. The results (IC50 means the concentration, in μM of drug, required to inhibit the reverse transcriptase activity (P236L and Wild Type) to the extent of 50%) of various assay(s) are combined and reported as % inhibition and/or IC50 (calculated) in Table I (P236L) and Table II (Wild Type).
`Nc1cc(Cl)nc(SCc2cc(CO)ccn2)n1` [Example 164, 4-amino-6-chloro-2-[2-(4-hydroxymethyl)-pyridylmethylthio]-pyrimidine] was tested, and the IC50 was 1000 nM. In the case of `Nc1cc(Cl)nc(SCc2c(F)cccc2F)n1` [Example 34, 4-amino-6-chloro-2-(2,6-difluorophenylmethylthio)-pyrimidine], the IC50 is reported as 10000 nM. In the case of `Cc1cc(CSc2nc(N)cc(Cl)n2)nc(N(C)C)c1` [Example 154, 4-amino-6-chloro-2-[2-(6-dimethylamino-4-methyl)pyridylmethylthio]-pyrimidine], the IC50 is reported as 50 nM. With `Cc1cc(CSc2nc(N)cc(Cl)n2)nc(C)n1` [Example 142, 4-amino-6-chloro-2-[4-(2,6-dimethyl)pyrimidinylmethylthio]-pyrimidine] the IC50 was 500 nM. `Cc1ccnc(CSc2nc(N)c(Br)c(Cl)n2)c1` [Example 165, 4-amino-5-bromo-6-chloro-2-[2-(4-methyl)pyridylmethylthio]-pyrimidine] showed an IC50 of 50 nM. In the case of `Nc1cc(Cl)nc(SCc2ccc3ccccc3n2)n1` [Example 61, 4-amino-6-chloro-2-(2-quinolinylmethylthio)-pyrimidine], the IC50 is reported as 5000 nM. In the case of `CCCNc1cc(Cl)nc(SCc2ccccc2)n1` [Example 87, 4-propylamino-6-chloro-2-(benzylthio)-pyrimidine], the IC50 is reported as 100000 nM. For `Nc1cc(Cl)nc(SCc2cnc3ccccc3n2)n1` [Example 179, 4-Amino-6-chloro-2-[(quinoxalin-2-ylmethyl)thio]pyrimidine], the IC50 was 500 nM. `COc1cccc(CSc2nc(N)cc(Cl)n2)c1` [Example 39, 4-amino-6-chloro-2-(3-methoxyphenylmethylthio)-pyrimidine] was tested, and the IC50 was 160 nM. In the case of `Nc1cc(Cl)nc(SCc2cccc([N+](=O)[O-])c2)n1` [Example 45, 4-amino-6-chloro-2-(3-nitrophenylmethylthio)-pyrimidine], the IC50 is reported as 110 nM. Work on `Nc1cc(Cl)nc(SCc2cc(N3CCCC3)ccn2)n1` [Example 143, 4-amino-6-chloro-2-[2-(4-pyrrolidino)pyridylmethylthio]-pyrimidine] yielded an IC50 of 50 nM. With `COC(=O)c1ccnc(CSc2nc(N)cc(Cl)n2)c1` [Example 156, 4-amino-6-chloro-2-[2-(4-carbomethoxy)pyridylmethylthio]-pyrimidine] the IC50 was 100 nM. In the case of `Nc1cc(Cl)nc(SCc2ccc3ncccc3c2)n1` [Example 178, 4-Amino-6-chloro-2-[(quinolin-6-ylmethyl)thio]pyrimidine], the IC50 is reported as 500 nM. `Cc1cc(Cl)nc(CSc2nc(N)cc(Cl)n2)c1` [Example 125, 4-amino-6-chloro-2-[2-(6-chloro-4-methyl)pyridylmethylthio]-pyrimidine] showed an IC50 of 50 nM. `CC(C)Oc1ccnc(CSc2nc(N)cc(Cl)n2)c1` [Example 126, 4-amino-6-chloro-2-[2-(4-isopropoxy)pyridylmethylthio]-pyrimidine] was tested, and the IC50 was 50 nM. Work on `Cc1cncc(CSc2nc(N)cc(Cl)n2)n1` [Example 173, 4-Amino-6-chloro-2-[(6-methylpyrazin-2-ylmethyl)thio]pyrimidine] yielded an IC50 of 10000 nM. In the case of `Nc1cc(Cl)nc(SCc2ccccn2)n1` [Example 55, 4-amino-6-chloro-2-(2-pyridylmethylthio)-pyrimidine], the IC50 is reported as 2 nM. With `Cc1cccnc1CSc1nc(N)cc(Cl)n1` [Example 117, 4-amino-6-chloro-2-[2-(3-methyl)pyridylmethylthio]-pyrimidine] the IC50 was 1050 nM. Work on `Nc1cc(Cl)nc(SCc2ccc3cc(F)c(F)cc3c2)n1` [Example 60, 4-amino-6-chloro-2-(6,7-difluoro-2-naphthylmethylthio)-pyrimidine] yielded an IC50 of 10000 nM.

Same assay, conditions: IC50 (Table I, P236L), 30 minutes at 37° C.
`Nc1cc(Cl)nc(SCc2ccc(-c3ccccc3)cn2)n1` [Example 133, 4-amino-6-chloro-2-[2-(5-phenyl)pyridylmethylthio]-pyrimidine] showed an IC50 of 1000 nM.

The compounds below were run against T2, viral reverse transcriptase (Wild Type) (Human immunodeficiency virus type 1 group M subtype B, UniProt P04585) (assay: inhibition of viral reverse transcriptase (Wild Type), cell free assay). Conditions: 30 minutes at 37° C.
T2 construct: Viral reverse transcriptase (Wild Type) is found in extracts from bacterial clones; made in house; host or cells: Escherichia coli
Assay type: biochemical
From the text: as §1
With `CCCCC(Sc1nc(N)cc(Cl)n1)c1cc(C)ccn1` (stereo not shown) [Example 224, 4-Amino-6-chloro-2-(1-(4-methyl-2-pyridyl)pentyl)thio-pyrimidine] the “IC50 (Table II, Wild Type)” value was “INACTIVE”.

Same assay, conditions: 30 minutes at 37° C., read-out: IC50 (Table II, Wild Type)
In the case of `CC(C)c1coc2cnc(C(C)Sc3nc(N)cc(Cl)n3)cc12` (stereo not shown) [Example 252, 4-Amino-6-chloro-2-(1-(3-(1-methylethyl)furo[2,3c]-pyridin-5-yl)ethyl)thio-pyrimidine], the IC50 is reported as 175 nM. For `CCc1coc2c(Cl)nc(C(C)Sc3nc(N)cc(Cl)n3)cc12` (stereo not shown) [Example 251, 4-Amino-6-chloro-2-(1-(7-chloro-3-ethylfuro-[2,3c]pyridine-5yl)ethyl)thio-pyrimidine], the IC50 was 144 nM.

Same assay, conditions: @ 1 μM
Compound `CN(C)C(=O)/C=C/CSc1nc(N)cc(Cl)n1` [Example 204, (E)-N,N-Dimethyl-4-[(4-amino-6-chloro-2-pyrimidinyl)thio]-2-butenamide] has an inhibition at 1 µM of 78%. With `CC(=O)c1ccnc(C(C)Sc2nc(N)cc(Cl)n2)c1` (stereo not shown) [Example 219, 4-Amino-6-chloro-2-(1-(4-acetyl-2-pyridyl)ethyl)thio-pyrimidine] the inhibition at 1 µM was 84%. Compound `C=CCN(C)C(=O)/C=C/CSc1nc(N)cc(Cl)n1` [Example 201, (E)-N-allyl-N-methyl-4-[(4-amino-6-chloro-2-pyrimidinyl)thio]-2-butenamide] has an inhibition at 1 µM of 80%. `Cc1ccnc(C(C)(C)Sc2nc(N)cc(Cl)n2)c1` [Example 213] showed an inhibition at 1 µM of 72%. Compound `CCCN(CCC)C(=O)/C=C/CSc1nc(N)cc(Cl)n1` [Example 202, (E)-N,N-Dipropyl-4-[(4-amino-6-chloro-2-pyrimidinyl)thio]-2-butenamide] has an inhibition at 1 µM of 62%. In the case of `CC(Sc1nc(N)c(Br)c(Cl)n1)c1cc2ccccc2cn1` (stereo not shown) [Example 231, 4-Amino-5-bromo-6-chloro-2-(1-(3-isoquinolyl)ethyl)thio-pyrimidine], the inhibition at 1 µM is reported as 78%. `Nc1cc(Cl)nc(SC/C=C/C(=O)N2CCCC2)n1` [Example 199, (E)-1-[4-[(4-amino-6-chloro-2-pyrimidinyl)thio]-1-oxo-2-butenyl]pyrrolidine] was tested, and the inhibition at 1 µM was 93%. `Nc1cc(Cl)nc(SCc2cnc3occc3c2)n1` [Example 304, 4-amino-6-chloro-2-(furo[2,3-b]pyridin-5-yl-methylthio)-pyrimidine] gave an inhibition at 1 µM of 94%. For `Cc1ccnc(C(C#N)Sc2nc(N)cc(Cl)n2)c1` (stereo not shown) [Example 217, 4-Amino-6-chloro-2-(1-(4-methyl-2-pyridyl)-1-cyanomethyl)thio-pyrimidine], the inhibition at 1 µM was 58%. Work on `CCN(C)C(=O)/C=C/CSc1nc(N)cc(Cl)n1` [Example 203, (E)-N-ethyl-N-methyl-4-[(4-amino-6-chloro-2-pyrimidinyl)thio]-2-butenamide] yielded an inhibition at 1 µM of 96%. Compound `CCC(Sc1nc(N)cc(Cl)n1)c1cc(C)ccn1` (stereo not shown) [Example 218, 4-Amino-6-chloro-2-(1-(4-methyl-2-pyridyl)propyl)thio-pyrimidine] has an inhibition at 1 µM of 84%. Work on `CC(Sc1nc(N)cc(Cl)n1)c1nccc2ccccc12` (stereo not shown) [Example 232, 4-Amino-6-chloro-2-(1-(1-isoquinolyl)ethyl)thio-pyrimidine] yielded an inhibition at 1 µM of 90%.

Same assay, conditions: @ 10 μM
For `Nc1cc(Cl)nc(SC/C=C/C(=O)N2CCCCC2)n1` [Example 197, (E)-1-[4-[(4-amino-6-chloro-2-pyrimidinyl)thio]-1-oxo-2-butenyl]piperidine], the inhibition at 10 µM was 83%. In the case of `CC(Sc1nc(N)cc(Cl)n1)c1ccc2ccccc2c1` (stereo not shown) [Example 229, 4-Amino-6-chloro-2-(1-(2-naphthalenyl)ethyl)thio-pyrimidine], the inhibition at 10 µM is reported as 90%. In the case of `CC(C)(Sc1nc(N)cc(Cl)n1)c1ccccn1` [Example 212, 4-Amino-6-chloro-2-(1-(2-pyridyl)-1-methylethyl)thio-pyrimidine], the inhibition at 10 µM is reported as 57%. Work on `CCN(CC)Cc1ccnc(C(C)Sc2nc(N)cc(Cl)n2)c1` (stereo not shown) [Example 228] yielded an inhibition at 10 µM of 84%. `COC(=O)/C=C(\C)C(C)Sc1nc(N)cc(Cl)n1` (stereo not shown) [Example 209, (E)-4-[(4-Amino-6-chloro-2-pyrimidinyl)thio]-3-methyl-2-pentenoic acid methyl ester] was tested, and the inhibition at 10 µM was 67%.

Same assay, conditions: @ 50 μM
For `Cc1ccnc(C(Sc2nc(N)cc(Cl)n2)C2CC2)c1` (stereo not shown) [Example 226, 4-Amino-6-chloro-2-(1-(4-methyl-2-pyridyl)-1-cyclopropyl-methyl)thio-pyrimidine mesylate], the inhibition at 50 µM was 79%. With `CCOC(=O)c1cc(N)nc(SCc2ccc3ccccc3c2)n1` [Example 305, 6-amino-2-(2-naphthylmethylthio)-pyrimidine-4-carboxylic acid ethyl ester] the inhibition at 50 µM was 21%. Compound `CC(Sc1nc(N)cc(Cl)n1)c1cc(CN2CCOCC2)ccn1` (stereo not shown) [Example 227, 4-Amino-6-chloro-2-(1-(4-(4-morpholinyl)methyl-2-pyridyl)ethyl)thio-pyrimidine] has an inhibition at 50 µM of 49%.
